Data reported in patent US9617244B2, “Antibacterial quinoline derivatives” (JANSSEN PHARMACEUTICA NV, priority 2012, dated 2017).
Converted amounts (≈) assume the structure as drawn.

Tested on: Staphylococcus aureus (ATCC29213)
Experiment: In-vitro anti-bacterial activity, microtitre plate assay, IC90 determination (non-mycobacterial strains)
Assay type: cell-based
Settings: 90% inhibitory concentration for bacterial growth, 24 hours, resazurin fluorescence
In short: (§1)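 Inoculum of about 100 TCID50 (10–60 CFU/well) in Mueller-Hinton broth, serial five-fold compound dilutions, 24 h at 37 °C in air. Growth read by resazurin fluorescence (ex 530/em 590 nm); IC90 in μg/ml as 90% growth inhibition.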

Row | SMILES | IC90 STA B29213
1 | COc1nc2ccc(Br)cc2cc1C(c1ccc(Cl)cc1)C1(O)CCNCC1Cc1ccccc1 (stereo not drawn) [Compound 41] | 3.48 µg/mL (≈ 6.31 µM)
2 | C=CC1CC(O)(C(c2ccc(Cl)cc2)c2cc3cc(Br)ccc3nc2OC)CCN1 (stereo not drawn) [Compound 373] | 3.08 µg/mL (≈ 6.31 µM)
3 | C=CC1CC(O)(C(c2ccc(Cl)cc2)c2cc3cc(Br)ccc3nc2OC)CCN1 (stereo not drawn) [Compound 374] | 3.08 µg/mL (≈ 6.31 µM)
4 | COc1nc2ccc(S(=O)(=O)C(C)C)cc2cc1C(c1ccc(Cl)cc1)C1(O)CCNC(Cc2ccccc2)C1 (stereo not drawn) [Compound 386] | 3.65 µg/mL (≈ 6.3 µM)
5 | COc1nc2ccc(S(=O)(=O)C(C)C)cc2cc1C(c1ccc(Cl)cc1)C1(O)CCNC(Cc2ccccc2)C1 (stereo not drawn) [Compound 387] | 14.55 µg/mL (≈ 25.1 µM)
6 | COc1nc2ccc(S(C)(=O)=O)cc2cc1C(c1ccc(Cl)cc1)C1(O)CCNC(Cc2ccc(F)cc2)C1 (stereo not drawn) [Compound 388] | 1.80 µg/mL (≈ 3.16 µM)
7 | COc1nc2ccc(S(C)(=O)=O)cc2cc1C(c1ccc(Cl)cc1)C1(O)CCNC(Cc2ccc(F)cc2)C1 (stereo not drawn) [Compound 389] | 7.16 µg/mL (≈ 12.6 µM)
8 | COc1nc2ccc(S(C)(=O)=O)cc2cc1C(c1ccc(Cl)cc1)C1(O)CCNC(Cc2ccc(F)cc2)C1 (stereo not drawn) [Compound 390] | 14.30 µg/mL (≈ 25.1 µM)
9 | COc1nc2ccc(S(C)(=O)=O)cc2cc1C(c1ccc(Cl)cc1)C1(O)CCNC(Cc2ccc(F)cc2)C1 (stereo not drawn) [Compound 391] | 3.59 µg/mL (≈ 6.31 µM)
10 | C=CCC1CNCCC1(O)C(c1ccc(Cl)cc1)c1cc2cc(Br)ccc2nc1OC (stereo not drawn) [Compound 393] | 10.01 µg/mL (≈ 19.9 µM)
11 | C=CCC1CNCCC1(O)C(c1cccc(Cl)c1)c1cc2cc(Cl)ccc2nc1OC (stereo not drawn) [Compound 395] | 5.76 µg/mL (≈ 12.6 µM)
12 | COc1nc2ccc(F)cc2cc1C(c1ccc(S(C)(=O)=O)cc1)C1(O)CCNC(c2ccc(F)cc2C)C1 (stereo not drawn) [Compound 419] | 11.03 µg/mL (≈ 20 µM)
13 | COc1nc2ccc(Cl)cc2cc1C(c1ccc(Cl)cc1)C1(O)CCNCC1C (stereo not drawn) [Compound 423] | 5.43 µg/mL (≈ 12.6 µM)
14 | COc1nc2ccc(Br)cc2cc1C(c1ccccc1)C1(O)CCNCC1C (stereo not drawn) [Compound 426] | >11.09 µg/mL
15 | COc1nc2ccc(Cl)cc2cc1C(c1ccc(Cl)cc1)C1(O)CCNCC1Cc1ccccn1 (stereo not drawn) [Compound 433] | 6.40 µg/mL (≈ 12.6 µM)
16 | COc1nc2ccc(Cl)cc2cc1C(c1ccc(Cl)cc1)C1(O)CCNCC1Cc1ccccn1 (stereo not drawn) [Compound 434] | 3.21 µg/mL (≈ 6.31 µM)
17 | O=c1[nH]c2ccc(Cl)cc2cc1C(c1ccc(Cl)cc1)C1(O)CCNC(CO)C1 (stereo not drawn) [Compound 446] | 10.89 µg/mL (≈ 25.1 µM)
18 | COc1nc2ccc(S(C)(=O)=O)cc2cc1C(c1ccc(Cl)cc1)C1(O)CCNCC1Cc1cccc[n+]1[O-] (stereo not drawn) [Compound 447] | >14.27 µg/mL
19 | COc1nc2ccc(S(C)(=O)=O)cc2cc1C(c1ccc(Cl)cc1)C1(O)CCNCC1Cc1cccc[n+]1[O-] (stereo not drawn) [Compound 448] | >14.27 µg/mL
20 | COc1nc2ccc(Cl)cc2cc1C(c1ccc(Cl)cc1)C1(O)CCNCC1F (stereo not drawn) [Compound 449] | 5.48 µg/mL (≈ 12.6 µM)
21 | COc1nc2ccc(Cl)cc2cc1C(c1ccc(Cl)cc1)C1(O)CCNCC1F (stereo not drawn) [Compound 450] | 8.69 µg/mL (≈ 20 µM)
22 | COc1nc2ccc(Cl)cc2cc1C(c1ccc(Cl)cc1)C1(O)CCNCC1F (stereo not drawn) [Compound 451] | 5.48 µg/mL (≈ 12.6 µM)

Tested on: Streptococcus pneumoniae (ATCC6305)
Experiment: as above
Assay type: cell-based
Settings: 90% inhibitory concentration for bacterial growth, 24 hours, resazurin fluorescence
In short: as §1

Row | SMILES | IC90 SPN 6305
23 | COc1nc2ccc(Br)cc2cc1C(c1ccc(Cl)cc1)C1(O)CCNCC1Cc1ccccc1 (stereo not drawn) [Compound 41] | 6.95 µg/mL (≈ 12.6 µM)

Tested on: Mycobacterium smegmatis (ATCC607)
Experiment: In-vitro anti-bacterial activity against strain M. Smegmatis ATCC607
Assay type: cell-based
Settings: 90% inhibitory concentration for bacterial growth, 48 hours, Alamar Blue fluorescence
In short: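 Serial five-fold compound dilutions in BSA-supplemented wells, inoculated with ~250 CFU/well in Mueller-Hinton broth, incubated 48 h at 37 °C, 5% CO2. Growth read by Alamar Blue fluorescence (ex 530/em 590 nm); IC90 in μg/ml.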

Row | SMILES | IC90 MSM 607
24 | COc1nc2ccc(Br)cc2cc1C(c1ccc(Cl)cc1)C1(O)CCNCC1Cc1ccccc1 (stereo not drawn) [Compound 41] | 3.48 µg/mL (≈ 6.31 µM)
25 | C=CC1CC(O)(C(c2ccc(Cl)cc2)c2cc3cc(Br)ccc3nc2OC)CCN1 (stereo not drawn) [Compound 373] | 3.08 µg/mL (≈ 6.31 µM)
26 | C=CC1CC(O)(C(c2ccc(Cl)cc2)c2cc3cc(Br)ccc3nc2OC)CCN1 (stereo not drawn) [Compound 374] | 1.23 µg/mL (≈ 2.52 µM)
27 | COc1nc2ccc(S(=O)(=O)C(C)C)cc2cc1C(c1ccc(Cl)cc1)C1(O)CCNC(Cc2ccccc2)C1 (stereo not drawn) [Compound 386] | 2.90 µg/mL (≈ 5.01 µM)
28 | COc1nc2ccc(S(=O)(=O)C(C)C)cc2cc1C(c1ccc(Cl)cc1)C1(O)CCNC(Cc2ccccc2)C1 (stereo not drawn) [Compound 387] | 7.29 µg/mL (≈ 12.6 µM)
29 | COc1nc2ccc(S(C)(=O)=O)cc2cc1C(c1ccc(Cl)cc1)C1(O)CCNC(Cc2ccc(F)cc2)C1 (stereo not drawn) [Compound 388] | 3.59 µg/mL (≈ 6.31 µM)
30 | COc1nc2ccc(S(C)(=O)=O)cc2cc1C(c1ccc(Cl)cc1)C1(O)CCNC(Cc2ccc(F)cc2)C1 (stereo not drawn) [Compound 389] | 7.16 µg/mL (≈ 12.6 µM)
31 | COc1nc2ccc(S(C)(=O)=O)cc2cc1C(c1ccc(Cl)cc1)C1(O)CCNC(Cc2ccc(F)cc2)C1 (stereo not drawn) [Compound 390] | 11.36 µg/mL (≈ 20 µM)
32 | COc1nc2ccc(S(C)(=O)=O)cc2cc1C(c1ccc(Cl)cc1)C1(O)CCNC(Cc2ccc(F)cc2)C1 (stereo not drawn) [Compound 391] | 1.80 µg/mL (≈ 3.16 µM)
33 | C=CCC1CNCCC1(O)C(c1ccc(Cl)cc1)c1cc2cc(Br)ccc2nc1OC (stereo not drawn) [Compound 393] | 6.32 µg/mL (≈ 12.6 µM)
34 | C=CCC1CNCCC1(O)C(c1cccc(Cl)c1)c1cc2cc(Cl)ccc2nc1OC (stereo not drawn) [Compound 395] | 2.89 µg/mL (≈ 6.32 µM)
35 | COc1nc2ccc(F)cc2cc1C(c1ccc(S(C)(=O)=O)cc1)C1(O)CCNC(c2ccc(F)cc2C)C1 (stereo not drawn) [Compound 419] | 11.03 µg/mL (≈ 20 µM)
36 | COc1nc2ccc(Cl)cc2cc1C(c1ccc(Cl)cc1)C1(O)CCNCC1C (stereo not drawn) [Compound 423] | 3.43 µg/mL (≈ 7.95 µM)
37 | COc1nc2ccc(Br)cc2cc1C(c1ccccc1)C1(O)CCNCC1C (stereo not drawn) [Compound 426] | >11.09 µg/mL
38 | COc1nc2ccc(Cl)cc2cc1C(c1ccc(Cl)cc1)C1(O)CCNCC1Cc1ccccn1 (stereo not drawn) [Compound 434] | 3.21 µg/mL (≈ 6.31 µM)
39 | COc1nc2ccc(S(C)(=O)=O)cc2cc1C(c1ccc(Cl)cc1)C1(O)CCNCC1Cc1cccc[n+]1[O-] (stereo not drawn) [Compound 447] | >14.27 µg/mL
40 | COc1nc2ccc(S(C)(=O)=O)cc2cc1C(c1ccc(Cl)cc1)C1(O)CCNCC1Cc1cccc[n+]1[O-] (stereo not drawn) [Compound 448] | >14.27 µg/mL
41 | COc1nc2ccc(Cl)cc2cc1C(c1ccc(Cl)cc1)C1(O)CCNCC1F (stereo not drawn) [Compound 449] | 2.75 µg/mL (≈ 6.32 µM)
42 | COc1nc2ccc(Cl)cc2cc1C(c1ccc(Cl)cc1)C1(O)CCNCC1F (stereo not drawn) [Compound 450] | 4.35 µg/mL (≈ 9.99 µM)
43 | COc1nc2ccc(Cl)cc2cc1C(c1ccc(Cl)cc1)C1(O)CCNCC1F (stereo not drawn) [Compound 451] | 2.18 µg/mL (≈ 5.01 µM)

Same assay, conditions: Mycolicibacterium smegmatis, ATCC607, 48 h, 90% inhibitory concentration for bacterial growth, Alamar Blue fluorescence, read-out: IC90 MSM 607

Row | SMILES | IC90
44 | COc1nc2ccc(Cl)cc2cc1C(c1ccc(Cl)cc1)C1(O)CCNCC1Cc1ccccn1 (stereo not drawn) [Compound 433] | 4.04 µg/mL (≈ 7.95 µM)
45 | O=c1[nH]c2ccc(Cl)cc2cc1C(c1ccc(Cl)cc1)C1(O)CCNC(CO)C1 (stereo not drawn) [Compound 446] | 5.46 µg/mL (≈ 12.6 µM)

Tested on: not given
Experiment: not given
Settings: not given

Row | SMILES | melting point
46 | C=CC1CC(O)(C(c2ccc(Cl)cc2)c2cc3cc(Br)ccc3nc2OC)CCN1 (stereo not drawn) [Compound 373] | 193 °C
47 | C=CC1CC(O)(C(c2ccc(Cl)cc2)c2cc3cc(Br)ccc3nc2OC)CCN1 (stereo not drawn) [Compound 374] | 162 °C
48 | COc1nc2ccc(S(=O)(=O)C(C)C)cc2cc1C(c1ccc(Cl)cc1)C1(O)CCNC(Cc2ccccc2)C1 (stereo not drawn) [Compound 386] | 125 °C
49 | COc1nc2ccc(S(=O)(=O)C(C)C)cc2cc1C(c1ccc(Cl)cc1)C1(O)CCNC(Cc2ccccc2)C1 (stereo not drawn) [Compound 387] | 204 °C
50 | COc1nc2ccc(S(C)(=O)=O)cc2cc1C(c1ccc(Cl)cc1)C1(O)CCNC(Cc2ccc(F)cc2)C1 (stereo not drawn) [Compound 388] | 103 °C
51 | COc1nc2ccc(S(C)(=O)=O)cc2cc1C(c1ccc(Cl)cc1)C1(O)CCNC(Cc2ccc(F)cc2)C1 (stereo not drawn) [Compound 389] | 128 °C
52 | COc1nc2ccc(S(C)(=O)=O)cc2cc1C(c1ccc(Cl)cc1)C1(O)CCNC(Cc2ccc(F)cc2)C1 (stereo not drawn) [Compound 390] | 170 °C
53 | COc1nc2ccc(S(C)(=O)=O)cc2cc1C(c1ccc(Cl)cc1)C1(O)CCNC(Cc2ccc(F)cc2)C1 (stereo not drawn) [Compound 391] | 120 °C
54 | C=CCC1CNCCC1(O)C(c1ccc(Cl)cc1)c1cc2cc(Br)ccc2nc1OC (stereo not drawn) [Compound 393] | 159 to 161 °C
55 | C=CCC1CNCCC1(O)C(c1cccc(Cl)c1)c1cc2cc(Cl)ccc2nc1OC (stereo not drawn) [Compound 395] | 150 to 152 °C
56 | COc1nc2ccc(F)cc2cc1C(c1ccc(S(C)(=O)=O)cc1)C1(O)CCNC(c2ccc(F)cc2C)C1 (stereo not drawn) [Compound 419] | 154 °C
57 | COc1nc2ccc(Cl)cc2cc1C(c1ccc(Cl)cc1)C1(O)CCNCC1C (stereo not drawn) [Compound 423] | 174 °C
58 | COc1nc2ccc(Br)cc2cc1C(c1ccccc1)C1(O)CCNCC1C (stereo not drawn) [Compound 426] | 174 °C
59 | COc1nc2ccc(Cl)cc2cc1C(c1ccc(Cl)cc1)C1(O)CCNCC1Cc1ccccn1 (stereo not drawn) [Compound 433] | 114 °C
60 | COc1nc2ccc(Cl)cc2cc1C(c1ccc(Cl)cc1)C1(O)CCNCC1Cc1ccccn1 (stereo not drawn) [Compound 434] | 197 °C
61 | O=c1[nH]c2ccc(Cl)cc2cc1C(c1ccc(Cl)cc1)C1(O)CCNC(CO)C1 (stereo not drawn) [Compound 446] | 210 °C
62 | COc1nc2ccc(S(C)(=O)=O)cc2cc1C(c1ccc(Cl)cc1)C1(O)CCNCC1Cc1cccc[n+]1[O-] (stereo not drawn) [Compound 447] | 234 °C
63 | COc1nc2ccc(S(C)(=O)=O)cc2cc1C(c1ccc(Cl)cc1)C1(O)CCNCC1Cc1cccc[n+]1[O-] (stereo not drawn) [Compound 448] | 182 °C
64 | COc1nc2ccc(Cl)cc2cc1C(c1ccc(Cl)cc1)C1(O)CCNCC1F (stereo not drawn) [Compound 449] | 190 °C
65 | COc1nc2ccc(Cl)cc2cc1C(c1ccc(Cl)cc1)C1(O)CCNCC1F (stereo not drawn) [Compound 450] | 200 °C
66 | COc1nc2ccc(Cl)cc2cc1C(c1ccc(Cl)cc1)C1(O)CCNCC1F (stereo not drawn) [Compound 451] | 110 °C
